Reference: patent US12577216B2, “Triazine benzoate compound and application thereof” (SHENYANG SINOCHEM AGROCHEMICALS R&D CO., LTD., priority 2020, dated 2026)

Key:
piemarker = experiment: Determination of herbicidal activity, post-emergence stem and leaf spray, piemarker; assay type: in vivo; details: for Herbicidal activity for Piemarker, control effect %: Table 4 parallel comparison
Procedure: (§1) Seeds of broadleaf weeds (zinnia and piemarker) or grassy weeds (green bristlegrass and barnyard grass) were respectively sown in a paper cup having a diameter of 7 cm and containing nutrient soil; after sowing, the seeds were covered with 1 cm of soil; the soil was pressed and watered, and then the seeds were cultivated in a greenhouse according to a conventional method; and stems and leaves were sprayed after 2-3 leaf stage of the weeds.
(§2) After the original medicinal acetone was dissolved, the test requires to use 1‰ of Tween 80 to stand in running water to prepare the solution to be tested with a required concentration. According to the design dose of the test, spray treatment was carried out on a track-type crop sprayer (designed and produced by British Engineer Research Ltd.) (spray pressure is 1.95 kg/cm^2, spray volume is 500 L/hm^2 and track speed is 1.48 km/h). The test was repeated for three times. The test material was treated and then placed in an operation hall. The medicinal liquid was naturally dried in the shade, and then was placed in a greenhouse and managed according to the conventional method. The response of the weeds to the drug was observed and recorded. After treatment, the control effects of the test drug on the weeds were visually inspected regularly, expressed by 0-100%. “0” represents no control effect and “100%” represents complete killing.

[1] = test system: Commelina benghalensis Linn.; details: postemergence application, doses of 7.81 and 3.91 g/ha; cited from earlier work
green bristlegrass = experiment: Determination of herbicidal activity, post-emergence stem and leaf spray, green bristlegrass; assay type: in vivo; details: for Herbicidal activity for Green Bristlegrass, control effect %: Table 5 parallel comparison
Procedure: as §1, §2

zinnia = experiment: Determination of herbicidal activity, post-emergence stem and leaf spray, zinnia; assay type: in vivo; details: for Herbicidal activity for Zinnia, control effect %: Table 3 parallel comparison; for control effects on zinnia: 150 g a.i./hm^2, after emergence, visual 0-100%
Procedure: as §1, §2

Setaria faberi = details: postemergence application, doses of 7.81 and 3.91 g/ha; cited from earlier work
barnyard grass = experiment: Determination of herbicidal activity, post-emergence stem and leaf spray, barnyard grass; assay type: in vivo; details: for Herbicidal activity for Barnyard Grass, control effect %: Table 6 parallel comparison
Procedure: as §1, §2

Chenopodium album L. = details: postemergence application, doses of 7.81 and 3.91 g/ha; cited from earlier work
Amaranthus retroflexus = details: postemergence application, doses of 7.81 and 3.91 g/ha; cited from earlier work
[2] = Table 2, 9.375 g a.i./hm^2, after emergence
[3] = Table 2, 37.5 g a.i./hm^2, after emergence
[4] = 9.375 g a.i./hm^2, after emergence
[5] = 37.5 g a.i./hm^2, after emergence
[6] = 2.34 g a.i./hm^2, after emergence
[7] = 150 g a.i./hm^2, after emergence, visual 0-100%

C=CCOC(=O)c1cc(-n2c(=O)n(C)c(=S)n(C)c2=O)c(F)cc1Cl [KC1, reference compound]
Piemarker, control effect % (piemarker; [2]): 55% | Piemarker, control effect % (piemarker; [3]): 100% | Herbicidal activity for Piemarker, control effect % (piemarker; [4]): 55% | control of Commelina benghalensis Linn. [1]: effectively control | Green Bristlegrass, control effect % (green bristlegrass; [2]): 10% | Green Bristlegrass, control effect % (green bristlegrass; [3]): 25% | Herbicidal activity for Green Bristlegrass, control effect % (green bristlegrass; [4]): 10% | Herbicidal activity for Green Bristlegrass, control effect % (green bristlegrass; [5]): 25% | Zinnia, control effect % (zinnia; [2]): 50% | Zinnia, control effect % (zinnia; [3]): 60% | Herbicidal activity for Zinnia, control effect % (zinnia; [4]): 50% | control of Setaria faberi (Setaria faberi): effectively control | Barnyard Grass, control effect % (barnyard grass; [2]): 0% | Barnyard Grass, control effect % (barnyard grass; [3]): 25% | Herbicidal activity for Barnyard Grass, control effect % (barnyard grass; [4]): 0% | Herbicidal activity for Barnyard Grass, control effect % (barnyard grass; [5]): 25% | control of Chenopodium album L. (Chenopodium album L.): effectively control | control of Amaranthus retroflexus (Amaranthus retroflexus): effectively control

CCOC(=O)C(C)OC(=O)c1cc(-n2c(=O)n(C)c(=S)n(C)c2=O)c(F)cc1Cl (racemic) [Compound 248, 2-chloro-4-fluoro-5-(3,5-dimethyl-2,6-dioxo-4-thio-1,3,5-triazine-1-yl) benzoic acid (1-ethoxycarbonyl)ethyl ester]
Piemarker, control effect % (piemarker; [2]): 90% | Piemarker, control effect % (piemarker; [3]): 100% | Herbicidal activity for Piemarker, control effect % (piemarker; [6]): 90% | Herbicidal activity for Piemarker, control effect % (piemarker; [4]): 100% | pest or weed control at 150 g/ha (piemarker; post-emergence, 150 g a.i./hm^2, after emergence, visual 0-100%, read-out: control effects on piemarker): 100% | Green Bristlegrass, control effect % (green bristlegrass; [2]): 70% | Green Bristlegrass, control effect % (green bristlegrass; [3]): 95% | Herbicidal activity for Green Bristlegrass, control effect % (green bristlegrass; [4]): 60% | Herbicidal activity for Green Bristlegrass, control effect % (green bristlegrass; [5]): 85% | control effects on zinnia (zinnia): 100% | Zinnia, control effect % (zinnia; [2]): 60% | Zinnia, control effect % (zinnia; [3]): 90% | Herbicidal activity for Zinnia, control effect % (zinnia; [6]): 95% | Herbicidal activity for Zinnia, control effect % (zinnia; [4]): 100% | Barnyard Grass, control effect % (barnyard grass; [2]): 95% | Barnyard Grass, control effect % (barnyard grass; [3]): 100% | Herbicidal activity for Barnyard Grass, control effect % (barnyard grass; [4]): 90% | Herbicidal activity for Barnyard Grass, control effect % (barnyard grass; [5]): 100%

Cn1c(=S)n(C)c(=O)n(-c2cc(C(=O)OCC(=O)OCCCl)c(Cl)cc2F)c1=O [Compound 221]
control effects on piemarker (piemarker; [7]): 100% | Herbicidal activity for Piemarker, control effect % (piemarker; [6]): 85% | Herbicidal activity for Piemarker, control effect % (piemarker; [4]): 100% | Herbicidal activity for Green Bristlegrass, control effect % (green bristlegrass; [4]): 80% | Herbicidal activity for Green Bristlegrass, control effect % (green bristlegrass; [5]): 90% | control effects on zinnia (zinnia): 100% | Herbicidal activity for Zinnia, control effect % (zinnia; [6]): 85% | Herbicidal activity for Zinnia, control effect % (zinnia; [4]): 100% | Herbicidal activity for Barnyard Grass, control effect % (barnyard grass; [4]): 98% | Herbicidal activity for Barnyard Grass, control effect % (barnyard grass; [5]): 100%

Cn1c(=S)n(C)c(=O)n(-c2cc(C(=O)OCC(=O)OCCCCCl)c(Cl)cc2F)c1=O [Compound 225]
control effects on piemarker (piemarker; [7]): 100% | Herbicidal activity for Piemarker, control effect % (piemarker; [6]): 85% | Herbicidal activity for Piemarker, control effect % (piemarker; [4]): 100% | Herbicidal activity for Green Bristlegrass, control effect % (green bristlegrass; [4]): 80% | Herbicidal activity for Green Bristlegrass, control effect % (green bristlegrass; [5]): 90% | control effects on zinnia (zinnia): 100% | Herbicidal activity for Zinnia, control effect % (zinnia; [6]): 95% | Herbicidal activity for Zinnia, control effect % (zinnia; [4]): 100% | Herbicidal activity for Barnyard Grass, control effect % (barnyard grass; [4]): 95% | Herbicidal activity for Barnyard Grass, control effect % (barnyard grass; [5]): 100%

CCOC(=O)[C@@H](C)OC(=O)c1cc(-n2c(=O)n(C)c(=S)n(C)c2=O)c(F)cc1Cl [Compound 249]
control effects on piemarker (piemarker; [7]): 100% | Piemarker, control effect % (piemarker; [2]): 65% | Piemarker, control effect % (piemarker; [3]): 100% | Green Bristlegrass, control effect % (green bristlegrass; [2]): 35% | Green Bristlegrass, control effect % (green bristlegrass; [3]): 80% | control effects on zinnia (zinnia): 100% | Zinnia, control effect % (zinnia; [2]): 50% | Zinnia, control effect % (zinnia; [3]): 70% | Barnyard Grass, control effect % (barnyard grass; [2]): 30% | Barnyard Grass, control effect % (barnyard grass; [3]): 55%
